Assay results from patent US20240197716A1, “TREATMENTS FOR CUSHING'S SYNDROME THAT DO NOT SIGNIFICANTLY AFFECT CARDIAC RHYTHMS” (Corcept Therapeutics Incorporated, priority 2022, published 2024).
“And” between values parts separate entries of the source, which are not always exact repeats. Equal entries are not always repeated. Where two headings read alike, the source gives them in different places.

Experiments:
[1] = tested on: cardiac repolarization in healthy volunteers; test: Thorough QT/QTc (TQT) study (NCT04795479), cardiodynamic Holter ECG; settings: for ΔΔQTcF Estimate (msec) (90% CI), predicted at geometric mean Cmax: PK/QTc population
Text: These studies included a randomized, partial double-blind, placebo- and positive-controlled, multiple-dose, 4-way crossover, thorough QT/QTc (TQT) study to investigate the effect of relacorilant on cardiac repolarization. These studies measured placebo-corrected change-from-baseline QTcF (ΔΔQTcF); change-from-baseline of QTcF, HR, and PR and QRS intervals (ΔQTcF, ΔHR, ΔPR, and ΔQRS); placebo-corrected change-from-baseline of HR, and PR and QRS intervals (ΔΔHR, ΔΔPR, and ΔΔQRS); categorical outliers for QTcF, HR, and PR and QRS intervals; the frequency of treatment-emergent changes of T-wave morphology and presence of U-waves; PK parameters of relacorilant and its metabolites (CORT125337, CORT125336, and CORT125295) and moxifloxacin; safety profiles, including AEs/SAEs, physical examination, clinical chemistry, hematology, urinalysis, ECG, and vital signs.
A phase 1, randomized, partial double-blind, crossover thorough QT study (NCT04795479) to assess the effect of multiple doses of relacorilant on cardiac repolarization in healthy volunteers. Participants were randomized to dosing sequences to receive relacorilant at therapeutic (400 mg QD, n=25) or supra-therapeutic (800 mg QD, n=28) doses, or placebo (n=29) for 5 days. Moxifloxacin (400 mg single dose, n=28) was used as a positive control.
Each subject received 4 treatments in a randomized sequence during the study period. Each dosing consisted of 8 capsules (except for moxifloxacin on Day 5), including: • Treatment T: Multiple oral doses of 400 mg relacorilant (4 capsules)+placebo for relacorilant (4 capsules) once daily for 5 days; • Treatment ST: Multiple oral doses of 800 mg relacorilant (8 capsules) once daily for 5 days; • Treatment P: Multiple oral doses of placebo for relacorilant (8 capsules) once daily for 5 days; • Treatment M: Multiple oral doses of placebo for relacorilant (8 capsules) once daily for 4 days and a final single oral dose of 400 mg moxifloxacin (one tablet) on Day 5.
In a portion of present study conducted in healthy subjects, a single dose of moxifloxacin (400 mg; Treatment M) on the last day of its respective treatment period was included as a positive control to determine the sensitivity of the study to detect small QTc changes. Relacorilant doses included both a therapeutic dose level (400 mg; Treatment T) and a supra-therapeutic dose level (800 mg; Treatment ST). The study was blinded to subjects, investigator, study staff, and sponsor with respect to relacorilant (Treatments T and ST) and placebo for relacorilant (Treatment P); it was open-labeled for moxifloxacin (Treatment M). Enrolled subjects were randomized to one of twelve (12) dosing sequences to receive 4 different treatments according to the assigned dosing sequence as shown below:
In each period, subjects were admitted to the clinical site in the morning of Day-1 and stayed in the site until the morning of Day 6. In the study periods when subjects were randomized to Treatment T, ST, or P, the applicable study product (400 mg or 800 mg relacorilant or placebo for relacorilant) were taken once daily in the morning for 5 consecutive days. During the dosing period of positive control (Treatment M), placebo for relacorilant were administered on Days 1 to 4 to align with the dosing schedule for the other three treatments and moxifloxacin were administered in an open-labeled manner as a single dose in the morning of Day 5. Therefore, the treatment on Days 1 to 4 were double-blinded; it was not known before the morning on Day 5 whether or not a subject was allocated to receive moxifloxacin. Each dosing period (from Periods 2 to 4) was separated from the previous period by a washout period of at least 10 days from Day 6 of the previous period to Day 1 (first dose) of the subsequent period to prevent a carryover effect. The final visit was on Day 6 of Period 4. A safety phone follow-up was scheduled at 7 days (±2 days) post the final visit/early termination (ET) visit.

[2] = Plasma concentrations in TQT study (LC-MS/MS, non-compartmental PK); assay type: in vivo, human; settings: for Cmax: human, plasma, oral, Day 5, read-out: Geometric Mean Cmax
Protocol: PK analyses were performed using non-compartmental methods to obtain estimates of the following parameters, where possible: […] Day 1: Cmax, Tmax, AUClast, and AUC0-24; Day 5: Cmax, Tmax, Cmin, AUClast, AUC0-tau, Cavg, FI, and AR. For moxifloxacin: Cmax, Tmax, AUClast, and AUC0-24. […] PK blood sampling for Day 1 was completed prior to dosing on Day 2.

[3] = human, in vivo
Protocol: A phase 1, 3-part, single-center, First-in-Human study (NCT03508635) included 103 healthy volunteers who received single or multiple ascending doses (SAD/MAD) of relacorilant (up to 500 mg QD) for up to 14 days; 24 received placebo.
Relacorilant plasma concentration and QTcF data in the SAD and MAD phases were best fit with a linear model with treatment-specific intercepts. For both phases, the model-estimated slopes (90% CI) were slightly negative (SAD: −0.59[−2.14, 0.97]×10^−3 msec/ng/ml; MAD: −2.34[−3.16 to −1.52]×10^−3 msec/ng/ml). Therefore, a concentration-dependent effect of relacorilant on QTc prolongation was not identified.

Cmax ([2]; 400 mg QD): 1830 ng/mL
Cmax ([2]; 800 mg QD): 2710 ng/mL
observed range of plasma concentrations, upper end ([2]; supra-therapeutic dosing (800 mg)): ~4500 ng/mL
observed range of plasma concentrations, upper end [3]: approximately 4000 ng/ml
time of Cmax [3]: 2 h
SMILES: Cn1cc(S(=O)(=O)N2CCC3=Cc4c(cnn4-c4ccc(F)cc4)C[C@]3(C(=O)c3cc(C(F)(F)F)ccn3)C2)cn1 [relacorilant, ((R)-(1-(4-fluorophenyl)-6-((1-methyl-1H-pyrazol-4-yl)sulfonyl)-4,4a,5,6,7,8-hexahydro-1H-pyrazolo[3,4-g]isoquinolin-4a-yl)(4-(trifluoromethyl)pyridine-2-yl)methanone)]
ΔΔQTcF Estimate (msec) (90% CI), predicted at geometric mean Cmax ([1]; 400 mg (Day 5)): -3.02 ms
ΔΔQTcF Estimate (msec) (90% CI), predicted at geometric mean Cmax ([1]; 400 mg (Day 5), listed as Relacorilant): −3.02 (−4.16, −1.88)^1 msec
effect on HR ([1]; 400 mg and 800 mg QD): did not have a clinically relevant effect on HR
ΔΔQTcF Estimate (msec) (90% CI), predicted at geometric mean Cmax ([1]; 800 mg (Day 5)): -3.87 ms
ΔΔQTcF Estimate (msec) (90% CI), predicted at geometric mean Cmax ([1]; 800 mg (Day 5), listed as Relacorilant): −3.87 (−5.56, −2.17)^1 msec
LS mean placebo-corrected ΔHR, highest across post-dose time points ([1]; 2 hours post-dose on Day 5, 800 mg treatment): 2.4 bpm
LS mean placebo-corrected ΔHR, lowest across post-dose time points ([1]; 12 hours post-dose on Day 1, 800 mg treatment): −3.2 bpm
tolerability ([1]; Across all 3 studies (First-in-Human, TQT, and CS studies)): well tolerated
effect on ΔΔQTcF exceeding the 10-msec threshold ([1]; concentration-QTc modeling, plasma concentrations up to ˜4500 ng/mL): excluded
estimated slope (90% CI) of plasma concentration in the concentration-QTc relationship ([1]; linear mixed-effects model): −0.97(−1.68, −0.25) ×10^−3 msec/ng/ml and −0.97 ×10^−3 msec/ng/ml
effect on ECG parameters ([1]; therapeutic (400 mg) and supra-therapeutic (800 mg) doses): no adverse effects on ECG parameters
